Data set [1] in a line: xn = mol fraction of the nth substance listed. The conditions noted are these: 298.15 K; 101 kPa; Liquid; Vibrating tube method; x1 = 0.3336.
The nature of data set [2]: refractive index (Na D-line) (dimensionless); xn = mol fraction of the nth substance listed. The conditions noted are these: 298.15 K; 101 kPa; Liquid; Standard Abbe refractometry; x1 = 0.3336.

Numbers after ± are expanded uncertainties.

In general, mass density refers to mass per unit of volume. Broadly, the refractive index is a measure of how strongly the sample bends light. `C[N+](C)(C)C.[Cl-]` [tetramethylammonium chloride] + OCC(O)CO: the mass density in data set [1] is listed as 1145.22 ± 2.1 kg/m3. Moreover, the refractive index in data set [2] came out at 1.47183 ± 0.00044.

For the origin of these results see the NIST ThermoML archive (doi:10.1016/j.fluid.2018.06.003).
